Results taken from patent US6869939B2, “Formulations containing amiodarone and sulfoalkyl ether cyclodextrin” (CyDex, Inc., priority 2002, dated 2005).
Where two headings read alike, the source gives them in different places.

Columns and labels:
[1] = room temperature (not heated), pH 4.5
[2] = pH 4.5
Source text: The mixture can optionally further comprise a buffer or other charged species wherein the concentration of the buffer or other charged species is less than about 0.5M.

[3] = SBE7-β-CD 0.5% w/v (0.00231 Molar)
[4] = SBE7-β-CD 1% w/v (0.00462 Molar)
[5] = SBE7-β-CD 3% w/v (0.0139 Molar)
[6] = SBE7-β-CD 5% w/v (0.0231 Molar)
[7] = SBE7-β-CD 30% w/v (0.139 Molar)
[8] = SBE7-β-CD 50% w/v (0.231 Molar)
[9] = SBE7-β-CD 80% w/v (0.370 Molar), by extrapolation of phase solubility data

Row | times SBE7-β-CD is more effective at solubilizing amiodarone than the named cyclodextrin [2] [times] | Compound | Amiodarone (Ami) [1, 3] [mg/mL] | Amiodarone (Ami) Molar [1, 3] [Molar] | Amiodarone (Ami) [1, 4] [mg/mL] | Amiodarone (Ami) Molar [1, 4] [Molar] | Amiodarone (Ami) [1, 5] [mg/mL] | Amiodarone (Ami) Molar [1, 5] [Molar] | Amiodarone (Ami) [1, 6] [mg/mL] | Amiodarone (Ami) Molar [1, 6] [Molar] | Amiodarone (Ami) [1, 7] [mg/mL] | Amiodarone (Ami) Molar [1, 7] [Molar] | Amiodarone (Ami) [1, 8] [mg/mL] | Amiodarone (Ami) Molar [1, 8] [Molar] | Amiodarone (Ami) [1, 9] [mg/mL] | Amiodarone (Ami) Molar [1, 9] [Molar]
1 | – | CCCCc1oc2ccccc2c1C(=O)c1cc(I)c(OCCN(CC)CC)c(I)c1.Cl [Amiodarone HCl, (2-butyl-3-benzofuranyl)[4-[2-(diethylamino)ethoxy]-3,5-diiodophenyl]methanone hydrochloride] | 0.482 | 0.000708 | 3.0 | 0.0045 | 20.6 | 0.03019 | 28.8 | 0.0423 | 53.8 | 0.079 | 72.2 | 0.106 | 100.8 | 0.148
2 | 1.7 | dimethyl-beta cyclodextrin [Methyl (DS˜14)] | – | – | – | – | – | – | – | – | – | – | – | – | – | –
